Molecules are shown by their SMILES.

For the assay, the target named is T1, ZAC^L9′T (Homo sapiens, UniProt Q401N2, A152T/L270T).
T1 construct: expressed in transfected cells; host or cells: Xenopus oocytes (cRNA injection, pUNIV vector)
T1 sequence (Q401N2 26-412 A152T/L270T): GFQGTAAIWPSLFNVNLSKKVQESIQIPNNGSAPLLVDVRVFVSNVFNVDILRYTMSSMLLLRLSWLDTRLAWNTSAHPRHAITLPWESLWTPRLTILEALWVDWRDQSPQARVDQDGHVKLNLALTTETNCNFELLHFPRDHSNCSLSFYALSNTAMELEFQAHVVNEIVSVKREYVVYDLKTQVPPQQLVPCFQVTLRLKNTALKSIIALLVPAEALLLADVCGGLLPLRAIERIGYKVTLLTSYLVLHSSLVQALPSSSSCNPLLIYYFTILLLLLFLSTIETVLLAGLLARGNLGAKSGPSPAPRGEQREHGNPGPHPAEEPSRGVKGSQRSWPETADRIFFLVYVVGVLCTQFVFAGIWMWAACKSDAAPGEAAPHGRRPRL
Put plainly: TEVC in oocytes, ZAC L9′T mutant. The format is cell-based. The note with it: agonist; n = 6. The procedure: The recordings were performed at room temperature.
Analysis of the data from the TEVC recordings were performed using Clampfit software version 10.5 (Molecular Devices, Crawley, UK) and GraphPad Prism version 7.0c (GraphPad Software, La Jolla, CA). Unless otherwise stated, the inward currents induced by agonists in oocytes were normalized to the maximal response elicited by a specific agonist (agonist Imax) on each oocyte. Concentration-response and concentration-inhibition curves were fitted in GraphPad Prism by nonlinear regression using the equation for sigmoidal dose-response with variable slope. Each data point represents the mean ± S.E.M. value of recordings performed on at least five oocytes in total from at least two different batches. For the data where statistical analysis was performed, a one-way ANOVA was used. The null hypothesis was rejected at P < 0.05, and the differences between the means were analyzed by Tukey’s multiple comparisons test.

As to `[Cl-].[Cl-].[Zn+2]` [Zn^2+, ZnCl2], the EC50 was 66 µM, the “nH ± S.E.M. (Hill slope)” value stood at 0.7 ± 0.4 and the “pEC50 ± S.E.M.” value is 4.18 ± 0.34.

Values taken from publication PMC11359809, “Probing the molecular basis for signal transduction through the Zinc-Activated Channel (ZAC)” (Biochemical pharmacology, 2021).
